Measured values from patent US20110136801A1, “Novel Compounds” (Dainippon Sumitomo Pharma Co. Ltd., priority 2009, published 2011).

Tests used:
Male Brown Norway rats = experiment: Antigen-induced pulmonary inflammation in a rat asthma model (eosinophils and Th2 cytokines in BALF); type: in vivo; settings: BALF 48 hours after challenge
Procedure: Rats were sensitized and challenged to produce allergic airway inflammation in a similar manner to that described by Underwood et al (British Journal of Pharmacology 2002; 137: 263-275, 2002). Male Brown Norway rats were sensitized subcutaneously with ovalbumin (OVA) and aluminum hydroxide on day 0, and challenged with aerosolized OVA solution on day 14. The test compound was administered twice intratracheally 24 hours before and 24 hours after the OVA-challenge and bronchoalveolar lavage fluid (BALF) was collected 48 hours after the OVA-challenge. Then eosinophils and Th2 cytokines (IL-5 and IL-13) in the BALF were measured to evaluate efficacy of the test compounds of this invention.

human TLR7 = molecular target: T1, human TLR7 (Homo sapiens, UniProt Q9NYK1); experiment: Human TLR7 Assay (SEAP reporter in HEK293 cells); type: cell-based; settings: HEK293 cell line expressing human TLR7 and pNiFty2-SEAP reporter, overnight incubation at 37° C., 0.1% DMSO; read-out: hTLR7 EC50;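 further: Read-out is secreted alkaline phosphatase made under an NFkB/ELAM-1 composite promoter, reporting TLR7-triggered NFkB activation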
T1 construct: expressed in transfected cells; host or cells: HEK293 cell line stably expressing the pNiFty2-SEAP reporter plasmid; TLR7 in pUNO vector, blasticidin selection
T1 sequence (Q9NYK1 27-1049): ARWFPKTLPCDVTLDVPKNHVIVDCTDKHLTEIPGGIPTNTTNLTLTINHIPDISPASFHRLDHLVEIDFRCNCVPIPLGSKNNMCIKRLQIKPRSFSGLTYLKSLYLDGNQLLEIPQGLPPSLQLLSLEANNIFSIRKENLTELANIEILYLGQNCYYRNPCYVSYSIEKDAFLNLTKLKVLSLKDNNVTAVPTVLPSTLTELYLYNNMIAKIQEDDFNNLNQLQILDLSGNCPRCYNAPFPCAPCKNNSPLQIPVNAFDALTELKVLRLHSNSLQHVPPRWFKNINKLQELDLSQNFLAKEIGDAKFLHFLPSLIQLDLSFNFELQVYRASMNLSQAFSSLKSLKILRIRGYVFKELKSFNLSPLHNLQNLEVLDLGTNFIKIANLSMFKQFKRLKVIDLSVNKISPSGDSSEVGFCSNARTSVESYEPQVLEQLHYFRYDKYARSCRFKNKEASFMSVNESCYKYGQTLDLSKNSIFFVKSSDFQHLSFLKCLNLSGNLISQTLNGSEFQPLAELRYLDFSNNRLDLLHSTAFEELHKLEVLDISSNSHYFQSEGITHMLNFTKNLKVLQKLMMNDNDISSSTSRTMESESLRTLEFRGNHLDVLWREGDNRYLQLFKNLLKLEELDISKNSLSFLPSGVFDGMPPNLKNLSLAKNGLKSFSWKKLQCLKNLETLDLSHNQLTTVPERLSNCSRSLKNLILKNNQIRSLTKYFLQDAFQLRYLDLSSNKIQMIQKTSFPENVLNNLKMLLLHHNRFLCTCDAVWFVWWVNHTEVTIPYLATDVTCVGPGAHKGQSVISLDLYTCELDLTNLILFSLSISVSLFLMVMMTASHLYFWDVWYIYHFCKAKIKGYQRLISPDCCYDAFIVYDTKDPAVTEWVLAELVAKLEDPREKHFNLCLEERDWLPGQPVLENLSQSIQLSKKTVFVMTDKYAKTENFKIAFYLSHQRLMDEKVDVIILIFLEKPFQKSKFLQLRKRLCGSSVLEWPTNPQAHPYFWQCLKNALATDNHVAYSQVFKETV

[1] = 0.1 mg/kg intratracheally 24 hours before and 24 hours after OVA-challenge
[2] = 1.0 mg/kg intratracheally 24 hours before and 24 hours after OVA-challenge
[3] = 0.01 mg/kg intratracheally 24 hours before and 24 hours after OVA-challenge
[4] = 0.03 mg/kg intratracheally 24 hours before and 24 hours after OVA-challenge
[5] = 0.3 mg/kg intratracheally 24 hours before and 24 hours after OVA-challenge

| SMILES | Eosinophiles in BALF, inhibition (%) to OVA-Challenge control (Male Brown Norway rats; [1]) | IL-5 in BALF, inhibition (%) to OVA-Challenge control (Male Brown Norway rats; [1]) | IL-13 in BALF, inhibition (%) to OVA-Challenge control (Male Brown Norway rats; [1]) | Eosinophiles in BALF, inhibition (%) to OVA-Challenge control (Male Brown Norway rats; [2]) | IL-5 in BALF, inhibition (%) to OVA-Challenge control (Male Brown Norway rats; [2]) | IL-13 in BALF, inhibition (%) to OVA-Challenge control (Male Brown Norway rats; [2]) | EC50 (human TLR7) | Eosinophiles in BALF, inhibition (%) to OVA-Challenge control (Male Brown Norway rats; [3]) | IL-5 in BALF, inhibition (%) to OVA-Challenge control (Male Brown Norway rats; [3]) | IL-13 in BALF, inhibition (%) to OVA-Challenge control (Male Brown Norway rats; [3]) | Eosinophiles in BALF, inhibition (%) to OVA-Challenge control (Male Brown Norway rats; [4]) | IL-13 in BALF, inhibition (%) to OVA-Challenge control (Male Brown Norway rats; [4]) | Eosinophiles in BALF, inhibition (%) to OVA-Challenge control (Male Brown Norway rats; [5]) | IL-13 in BALF, inhibition (%) to OVA-Challenge control (Male Brown Norway rats; [5]) |
| --- | --- | --- | --- | --- | --- | --- | --- | --- | --- | --- | --- | --- | --- | --- |
| CCN(CC)CC(=O)N(CCCn1c(CCOC)nc2c(N)nc3ccccc3c21)Cc1cccc(OCC(=O)OC(C)C)c1 [Example 27, Isopropyl 2-{3-[(N-{3-[4-amino-2-(2-methoxyethyl)-1H-imidazo[4,5-c]quinolin-1-yl]propyl}-2-(diethylamino)acetamido)methyl]phenoxy}acetate] | 64% | 41% | 72% | 89% | 90% | 88% | 66.1 nM |  |  |  |  |  |  |  |
| CCN(CC)CC(=O)N(CCCn1c(CCOC)nc2c(N)nc3ccccc3c21)Cc1cccc(OCC(=O)OC)c1 [Example 20, Methyl (3-{[[3-(4-amino-2-(2-methoxyethyl)-1H-imidazo[4,5-c]quinolin-1-yl)propyl](N,N-diethylglycyl)amino]methyl}phenoxy)acetate] | 56% | No effect | 22% |  |  |  | 31.7 nM | 14% | No effect | No effect |  |  |  |  |
| CCN(CC)CC(=O)N(CCCn1c(CCOC)nc2c(N)nc3ccccc3c21)Cc1cccc(OC(C)(C)C(=O)OC)c1 [Example 56, Methyl 2-{3-[(N-{3-[4-amino-2-(2-methoxyethyl)-1H-imidazo[4,5-c]quinolin-1-yl]propyl}-2-{diethylamino}acetamido)methyl]phenoxy}-2-methylpropanoate] | 78% | 86% | 89% | 94% | 99% | 98% | 33.1 nM |  |  |  |  |  |  |  |
| CCOCc1nc2c(N)nc3ccccc3c2n1CCCN(Cc1cccc(OCC(=O)OC(C)C)c1)C(=O)CN(CC)CC [Example 161, Isopropyl 2-{3-[(N-{3-[4-amino-2-(ethoxymethyl)-1H-imidazo[4,5-c]quinolin-1-yl]propyl}-2-{diethylamino}acetamido)methyl]phenoxy}acetate] |  |  |  |  |  |  | 262 nM |  |  |  | 54% | No effect | 66% | 64% |
| CCN(CC)CC(=O)N(CCCn1c(CCOC)nc2c(N)nc3ccccc3c21)Cc1cccc(OCC(=O)OC2CCCC2)c1 [Example 80, Cyclopentyl 2-{3-[(N-{3-[4-amino-2-(2-methoxyethyl)-1H-imidazo[4,5-c]quinolin-1-yl]propyl}-2-{diethylamino}acetamido)methyl]phenoxy}acetate] | 15% | No effect | No effect | 89% | 91% | 83% | 56.6 nM |  |  |  |  |  |  |  |
